Laboratory results taken from paper PMC3466269, “A Comprehensive Strategy to Discover Inhibitors of the Translesion Synthesis DNA Polymerase κ” (PLoS ONE, 2012).

Target: T1, Yeast pol δ (Saccharomyces cerevisiae, UniProt P15436)
T1 sequence (P15436 1-1097): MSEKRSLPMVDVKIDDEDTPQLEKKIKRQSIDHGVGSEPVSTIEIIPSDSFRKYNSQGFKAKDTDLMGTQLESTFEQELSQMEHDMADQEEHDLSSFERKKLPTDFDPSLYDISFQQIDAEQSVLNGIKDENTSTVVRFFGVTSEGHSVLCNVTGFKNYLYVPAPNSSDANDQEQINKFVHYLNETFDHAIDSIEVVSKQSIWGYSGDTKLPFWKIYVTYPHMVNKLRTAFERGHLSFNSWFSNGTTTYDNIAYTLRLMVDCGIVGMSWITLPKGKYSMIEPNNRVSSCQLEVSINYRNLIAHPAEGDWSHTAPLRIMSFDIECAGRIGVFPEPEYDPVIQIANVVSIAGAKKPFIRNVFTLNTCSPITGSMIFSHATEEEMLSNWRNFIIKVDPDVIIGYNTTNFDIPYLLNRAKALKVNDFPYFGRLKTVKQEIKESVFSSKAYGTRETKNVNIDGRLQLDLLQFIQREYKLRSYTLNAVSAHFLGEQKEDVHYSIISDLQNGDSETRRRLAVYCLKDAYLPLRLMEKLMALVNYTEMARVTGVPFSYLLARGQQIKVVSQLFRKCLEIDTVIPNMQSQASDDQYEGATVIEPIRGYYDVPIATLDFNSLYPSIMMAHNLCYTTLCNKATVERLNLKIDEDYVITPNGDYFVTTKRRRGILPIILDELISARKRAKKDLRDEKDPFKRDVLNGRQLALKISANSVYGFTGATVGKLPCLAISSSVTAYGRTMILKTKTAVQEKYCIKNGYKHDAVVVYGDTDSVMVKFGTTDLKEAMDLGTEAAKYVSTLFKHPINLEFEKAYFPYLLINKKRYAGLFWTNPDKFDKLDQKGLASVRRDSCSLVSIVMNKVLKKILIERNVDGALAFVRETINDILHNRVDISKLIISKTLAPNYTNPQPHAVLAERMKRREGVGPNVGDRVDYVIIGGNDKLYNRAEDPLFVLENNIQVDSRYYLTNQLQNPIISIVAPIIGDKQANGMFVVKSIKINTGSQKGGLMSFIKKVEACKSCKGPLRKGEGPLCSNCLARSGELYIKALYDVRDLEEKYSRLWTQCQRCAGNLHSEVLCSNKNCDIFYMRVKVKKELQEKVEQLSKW
T1 sequence (P46957 1-487 partner): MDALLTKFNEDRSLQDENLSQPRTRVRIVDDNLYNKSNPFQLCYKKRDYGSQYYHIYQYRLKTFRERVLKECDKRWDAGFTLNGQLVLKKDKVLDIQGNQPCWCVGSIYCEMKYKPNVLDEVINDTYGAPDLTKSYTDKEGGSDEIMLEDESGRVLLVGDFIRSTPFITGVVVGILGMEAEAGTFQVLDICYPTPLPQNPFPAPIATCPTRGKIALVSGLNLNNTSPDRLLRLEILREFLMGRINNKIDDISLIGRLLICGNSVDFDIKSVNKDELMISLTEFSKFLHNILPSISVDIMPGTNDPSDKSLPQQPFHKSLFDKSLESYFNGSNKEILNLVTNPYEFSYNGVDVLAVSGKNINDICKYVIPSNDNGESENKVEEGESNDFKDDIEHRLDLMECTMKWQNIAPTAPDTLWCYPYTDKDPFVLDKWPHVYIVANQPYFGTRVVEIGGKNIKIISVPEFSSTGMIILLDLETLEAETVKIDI
T1 sequence (P47110 1-350 partner): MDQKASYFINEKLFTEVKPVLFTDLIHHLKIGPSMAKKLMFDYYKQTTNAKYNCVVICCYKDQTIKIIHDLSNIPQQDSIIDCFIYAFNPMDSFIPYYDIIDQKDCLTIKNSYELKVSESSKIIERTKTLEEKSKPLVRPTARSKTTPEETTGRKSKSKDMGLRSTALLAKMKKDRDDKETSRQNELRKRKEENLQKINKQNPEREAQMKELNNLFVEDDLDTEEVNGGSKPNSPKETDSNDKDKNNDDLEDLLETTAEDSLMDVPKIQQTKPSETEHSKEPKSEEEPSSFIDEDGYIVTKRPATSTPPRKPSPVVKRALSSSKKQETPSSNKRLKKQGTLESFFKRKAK
Assay: Radioactive gel-based primer extension assay, pol δ
Format: biochemical
Description: The reactions with pol κ, pol η, and pol ι were carried out in the buffers containing 25 mM Tris-HCl, pH 7.5, 8 mM MgCl2, 10% glycerol, 100 µg/mL bovine serum albumin, and 5 mM DTT. Buffers for pol δ reactions contained 40 mM Hepes-KOH, pH 6.8, 10% glycerol, 200 µg/mL bovine serum albumin, 1 mM DTT, and 8 mM MgCl2. Final concentration of pol κ, pol η, pol ι, or pol δ in the reaction was 0.25 nM, 1 nM, 2.5 nM, or 4 nM, respectively. In this assay, a polymerase was preincubated with the compound for 15 min at room temperature. Primer extensions were then initiated by the addition of DNA substrate at final concentration of 5 nM and carried out for 30 min at room temperature in the presence of 100 µM dCTP and dGTP. The reactions were terminated by the addition of an equal volume of a dye solution containing 95% (v/v) formamide, 10 mM EDTA, 0.03% (w/v) xylene cyanol, and 0.03% (w/v) bromphenol blue. Reaction products were separated through a 15% acrylamide gel containing 8 M urea and visualized with a PhosphorImager screen. The ratio of extended primer to the total amount of primer was measured using ImageQuant 5.2 software to calculate the percentage of primer extended. IC50 values were determined by fitting the data to variable slope four-parameter equations using GraphPad Prism 5. […]

IC50 pol δ (maximum concentration 80 µM): could not be determined
Compound: CCOc1nc2cccc(C(=O)OC(C)OC(=O)OC3CCCCC3)c2n1Cc1ccc(-c2ccccc2-c2nnn[nH]2)cc1 (centres unmarked) [candesartan cilexetil, Candesartan cilexetil]
Inhibition of pol δ DNA synthesis (several concentrations, maximum 80 µM, data not shown): only at 80 µM concentration was there detectable inhibition
